This note sets out measurements from patent publication US11999718B2, “Pyrazole derivatives” (Aptabio Therapeutics Inc., priority 2021, dated 2024).

A word on the inhibition: it is how much of the control response was suppressed. High values mean strong suppression, low ones little suppression.

Structures are written as SMILES. A value given as a limit tells only on which side of the number the result lay.

One assay has as its system NHLF cells. As to the kind of experiment: ROS production induced by PMA in NHLF cells. Type of assay: cell-based, human. To be noted: FIG. 1. From the text: (§1) In order to confirm the effect of the compounds of Synthetic examples on ROS production from fibroblasts and specific substrate cells, ROS production was induced by stimulation of PMA (phorbol 12-myristate 13-acetate), TGF-β1, palmitate or high concentration-glucose, or the like, in HL-60 cells differentiated into neutrophil cells by DMSO treatment, NHLF (normal human lung fibroblast, Lonza), LX-2 (human hepatic stellate cells, Sigma), ARPE19 (human retinal pigment epithelial cell, ATCC), and KEL-FIB (Keloid fibroblast, ATCC) cells, and under this condition, the inhibitory effect of ROS production of the compounds of Synthetic Examples was observed.
(§2) The NHLF (normal human lung fibroblast, Lonza), LX-2 (human hepatic stellate cells, Sigma), ARPE19 (human retinal pigment epithelial cell, ATCC), KEL-FIB (keloid fibroblast, ATCC) cells were suspended in a culture medium containing 10% FBS and aliquoted on a 96 well plate and then cultured under the condition of 5% CO2, 37° C. for 24 hours. After pre-treating the compounds of Synthetic examples at a concentration of 10, 20, 30, 40, 60 and 80 μM for 30 minutes to 1 hour, the ROS stimulus was treated to each well containing the cells and drug. After additional culturing for 48 hours, the ROS production level was confirmed using L-012 or DCF-DA.

A further assay has as its system IL-6. The experiment in a line: Expression of IL-6 in pancreatic cancer associated fibroblasts (ELISA). Type of assay: cell-based, human. Conditions: P.CAF cells, 48 hours treatment, FIG. 5. The procedure: (§3) In order to confirm the effect of the compounds of Synthetic examples of the present invention on inflammation reaction in cancer associated fibroblasts, whether the expression of IL6 and IL8 was inhibited by the compounds of Synthetic examples in pancreatic cancer associated fibroblasts (P.CAF) was observed.
(§4) After inoculating 1.5×10^5 cells in a 6 well plate and then culturing in P.CAF complete media for 48 hours, the compounds of Synthetic examples were treated by 10, 20, 30, 40, 60 and 80 μM for 48 hours according to each condition, and then the expression of IL-6 and IL-8 was confirmed by performing ELISA with Quantkine ELISA kit (R&D systems) as follows.
(§5) 100 μl of the culture solution in which the compounds of Synthetic examples were treated for 48 hours was added to the microplate strip for analysis including a 100 μl assay diluent and left at a room temperature for 2 hours and then the contents were removed, and then it was washed with 400 μl wash buffer 4 times. 200 μl of a human IL-6 or IL-8 conjugate was added and left at a room temperature for 2 hours and then the contents were removed, and then it was washed with 400 μl wash buffer 4 times. 200 μl of substrate solution was added and left at a room temperature for 20 minutes and then 50 μl of stop solution was added, and the absorbance at a wavelength of 450 nm was measured within 30 minutes to confirm the expression level of IL-6 and IL-8.
Background: In an ELISA, binding on a coated surface is turned into a signal by an enzyme label.

Another assay concerns IL-1β. As to the kind of experiment: Expression of IL-1β induced by LPS in human-derived fibroblasts (RT-PCR). Type of assay: cell-based. Conditions: LX2, NHLF, ARPE19 and KEL-Fib cells, LPS 1 μg/ml 6 hours, 10 μM compound, FIG. 8. The method, then: After inoculating 2×10^5 cells in a 6 well plate and then culturing for 24 hours, they were further cultured in a serum-free culture solution for 16 hours and then the Synthetic example 1 Compound was pre-treated for 20 minutes according to each condition and inflammation reaction was induced with LPS (1 μg/ml) for 6 hours. The expression of IL-1β was confirmed using RT-PCR. Total RNA was separated from the cells using RNeasy mini kit (Qiagen), and for the separated RNA 2 ug, cDNA was synthesized using PrimeScript™ II 1st strand cDNA synthesis kit (TaKaRa) and then PCR was performed with AccuPower® PCR PreMix (Bioneer) to amplify genes. The nucleotide sequences for target primers are as follows. IL-1β (forward: 5′-[…]-3′(SEQ ID NO: 1), reverse: 5′-[…]-3′(SEQ ID NO: 2)); GAPDH (forward: 5′-[…]-3′(SEQ ID NO: 3), reverse: 5′-[…]-3′(SEQ ID NO: 4)); β-actin (forward: 5′-[…]-3′(SEQ ID NO: 5), reverse: 5′-[…]-3′(SEQ ID NO: 6)). The PCR product was confirmed by electrophoresis in 1.5% agarose gel.

For assay [1], the system named is HL-60 cells differentiated into neutrophil cells. As to the kind of experiment: ROS production induced by PMA in HL-60 cells differentiated into neutrophil cells. Type of assay: cell-based. To be noted: Homo sapiens, 0.5 h; differentiated HL-60 cells, compounds 0.5 uM (0.5 mM in the source) for 30 minutes, 200 nM PMA, L-012 luminescence.
The next assay concerns IL-8. As to the kind of experiment: Expression of IL-8 in pancreatic cancer associated fibroblasts (ELISA). It is filed as cell-based, human. Conditions: P.CAF cells, 48 hours treatment, FIG. 6. The procedure:
as §3, §4, §5

The test system of the next assay is HFF-1 cells. The experiment in a line: Collagen gel contraction induced by TGF-β1 in HFF-1 cells. Type of assay: cell-based, human. Conditions: HFF-1 cells in collagen gel, TGF-β1 10 ng/ml, 72 hours, FIG. 7. An excerpt: In order to confirm the effect of the compounds of Synthetic examples on differentiation of fibroblasts into myofibroblasts, the inhibitory effect of the compounds of Synthetic examples on the phenomenon of contraction of gel induced by interaction of human foreskin fibroblasts (HFF-1, ATCC) and collagen was observed.
The mixed solution of the HFF-1 cells and collagen (bovine type I collagen) prepared at a concentration of 3×10^6 cells/ml was aliquoted in a 24 well plate, respectively, and then cultured under the condition of 5% CO2, 37° C. for 1 hour to induce gel polymerization. Then, after suspending the gel attached on the plate from the plate using a spoon, a medium comprising TGF-β1 and Synthetic example compounds was added to each well. After culturing for 72 hours, the Synthetic example compounds were treated by 10, 20, 30, 40, 60 and 80 μM to measure the size of the gel, and thereby, the degree of contraction of the gel by drug treatment was confirmed.

In another assay the test system is αSMA. The experiment in a line: Expression of αSMA induced by TGF-β1 (immunocytochemistry). It is filed as cell-based, human. To be noted: TGF-β1 10 ng/ml, 10 μM compound, FIG. 4. From the text:
In order to confirm whether the compounds of Synthetic examples of the present invention affect differentiation of fibroblasts into myofibroblasts, the inhibitory effect of the compounds of Synthetic examples on increase in expression of αSMA (biomarker for confirming differentiation into myofibroblasts) induced by TGF-β1 on HFF-1 (human foreskin fibroblast, ATCC), NHLF (normal human lung fibroblast, Lonza), LX-2 (human hepatic stellate cells, Sigma), ARPE19 (human retinal pigment epithelial cell, ATCC), and KEL-FIB (Keloid fibroblast, ATCC) cells was to be observed.
Each cell was suspended in a DMEM medium containing 10% FBS and aliquoted at a concentration of 1×10^4 to 1.5×10^5 cells/well in a 4-well chamber slide (Nunc) and the compounds of Synthetic examples and TGF-β1 (both TGF β1 and TGF-β have the same meaning) were treated to prepare cells to be used for confirming αSMA expression. The confirmation of αSMA expression in the prepared cells was performed by immunocytochemistry as follows. For the cells, fixation with 4% paraformaldehyde for 10 minutes and permeabilization using 0.1% Triton x-100 were performed, and then processes of treating the primary antibody (anti-αSMA Ab, 1:200, at 4° C. for 16 hours) and secondary antibody (Alexa-594 conjugated Ab, 1:800, at a room temperature for 1 hour) against αSMA were progressed in order, and then the expression level of αSMA was observed using a fluorescence microscope.
FIG. 3 observes the effect of treating various compounds of Synthetic examples by 10, 20 and 40 μM, after inducing αSMA expression by treatment of TGF-β1(10 ng/ml) into HFF cells.

Another assay relates to LX-2 cells. The experiment in a line: ROS production induced by PMA in LX-2 cells. It is filed as cell-based, human. To be noted: FIG. 1.
Source text: as §1, §2

Turning to `CN(Cc1ccccc1)C1CCc2nn(-c3ccccn3)c(O)c2C1` (centres unmarked) [Compound 1, 5-(Benzylmethylamino)-2-(pyridin-2-yl)-4,5,6,7-tetrahydro-2H-indazol-3-ol], the “ROS production induced by PMA” value in the assay on NHLF cells and in the assay with LX-2 cells was “inhibited” throughout. Moreover, the “IL-6 expressed in P.CAF” value with IL-6 is given as “effectively inhibited”. For the same molecule, the “IL-1β induced by LPS” value in the assay on IL-1β is given as “effectively inhibited in a concentration-dependent manner”. In addition, the inhibition at 0.5 µM in assay [1] is > 70%. Further, in the assay with IL-8, the “IL-8 expressed in P.CAF” value is “effectively inhibited”. Also, the “contraction of the gel induced by TGF-β1” value in the assay on HFF-1 cells was “effectively inhibited”. Moreover, the “increase in expression of αSMA induced by TGF-β1” value in the assay on αSMA (ARPE19 cells), in the assay with αSMA (KEL-FIB cells), in the assay on αSMA (LX-2 cells) and with αSMA (NHLF cells) was “significantly inhibited” throughout.
